Measured values as given in US12091385B2, “Pyridinylcyanoguanidine derivative and use thereof” (Rushi Biotech (Hangzhou) Co., Ltd, priority 2021, dated 2024).
pIC50: −log10 of the molar value.

Legend:
Type in all cases: cell-based
[1] = system: Human colon cancer cell HCT-116; test: CCK-8 cell proliferation assay, HCT-116; settings: HCT116 cells, 72 hrs with drug, CCK-8, OD 450 nm
Method: (§1) The effect of samples on the proliferation of human tumor cells in vitro was determined by CCK-8 cell proliferation assay.
(§2) The cells were assayed through a method including the following steps: • 1) The cells were digested, counted, and prepared into a cell suspension in a corresponding culture medium (Table 1) (5×10^4 cells/ml for CFPAC-1 and RPMI 8226, and 3.5×10^4 cells/ml for rest cells). The cell suspension was added to each well of a 96-well plate in 100 μl/well. • 2) Then the 96-well plate was incubated for 24 hrs in an incubator at 37° C. and 5% CO2. • 3) The drug was diluted with the culture medium to the required working concentration. 100 μl of the corresponding drug containing medium was added to each well.

[2] = system: Human pancreatic cancer cell CFPAC-1; test: CCK-8 cell proliferation assay, CFPAC-1; settings: CFPAC-1 cells, 72 hrs with drug, CCK-8, OD 450 nm
Method: as §1, §2

[3] = system: Human lung adenocarcinoma cell A549; test: CCK-8 cell proliferation assay, A549; settings: A549 cells, 72 hrs with drug, CCK-8, OD 450 nm
Method: as §1, §2

[4] = system: Human gastric cancer cell MKN45; test: CCK-8 cell proliferation assay, MKN45; settings: MKN-45 cells, 72 hrs with drug, CCK-8, OD 450 nm
Method: as §1, §2

[5] = system: Human esophageal cancer cell TE-1; test: CCK-8 cell proliferation assay, TE-1; settings: TE-1 cells, 72 hrs with drug, CCK-8, OD 450 nm
Method: as §1, §2

[6] = system: Human multiple myeloma cell RPMI 8226; test: CCK-8 cell proliferation assay, RPMI 8226; settings: RPMI8226 cells, 72 hrs with drug, CCK-8, OD 450 nm
Method: as §1, §2

[7] = system: Human hepatoma cell HepG2; test: CCK-8 cell proliferation assay, HepG2; settings: HepG2 cells, 72 hrs with drug, CCK-8, OD 450 nm
Method: as §1, §2

N#CN=C(NCCCCCCC1CCN(C(=O)c2ccco2)C1)Nc1cccnc1 (centres unmarked) [BSS-PC062, 2-cyano-1-(6-(1-(furoyl)pyrrolidine-3-yl)hexyl)-3-(3-pyridinyl)guanidine]
pIC50 [1]: 7.33
pIC50 [2]: 7.47
pIC50 [3]: 7.34
pIC50 [4]: 7.41
pIC50 [5]: 7.31
pIC50 [6]: 7.64
pIC50 [7]: 7.24

COc1cccc(OC)c1C(=O)N1CCN(CCCCCNC(=NC#N)Nc2ccncc2)CC1 [BSS-PC006, 2-cyano-1-(5-(1-(2,6-dimethoxybenzoyl)piperazine-4-yl)pentyl)-3-(4-pyridinyl)guanidine]
pIC50 [1]: 7.12
pIC50 [2]: 7.26
pIC50 [3]: 7.14
pIC50 [4]: 7.05
pIC50 [5]: 6.90
pIC50 [6]: 7.47
pIC50 [7]: 7.04

N#CN=C(NCCCCCCC1CCN(C(=O)c2ccc[nH]2)C1)Nc1cccnc1 (centres unmarked) [BSS-PC061, 2-cyano-1-(6-(1-(2-pyrrolylformyl)pyrrolidine-3-yl)hexyl)-3-(3-pyridinyl)guanidine]
pIC50 [1]: 7.06
pIC50 [2]: 7.35
pIC50 [3]: 7.24
pIC50 [4]: 7.19
pIC50 [5]: 6.99
pIC50 [6]: 7.48
pIC50 [7]: 6.91

N#CN=C(NCCCCCC1CCN(C(=O)c2occc2F)C1)Nc1ccncc1 (centres unmarked) [BSS-PC048, 2-cyano-1-(5-(1-(3-fluoro-2-furylformyl)pyrrolidine-3-yl)pentyl)-3-(4-pyridinyl)guanidine]
pIC50 [1]: 7.22
pIC50 [2]: 7.44
pIC50 [3]: 7.38
pIC50 [4]: 7.47
pIC50 [5]: 7.29
pIC50 [6]: 7.48
pIC50 [7]: 7.33

N#CN=C(NCCCCCN1CCN(C(=O)c2ccco2)CC1)Nc1cccnc1 [BSS-PC026, 2-cyano-1-(5-((1-furoyl)piperazine-4-yl)pentyl)-3-(3-pyridinyl)guanidine]
pIC50 [1]: 7.14
pIC50 [2]: 7.51
pIC50 [3]: 7.49
pIC50 [4]: 7.52
pIC50 [5]: 7.14
pIC50 [6]: 7.70
pIC50 [7]: 7.26

N#CN=C(NCCCCCC1CCN(C(=O)c2cccs2)C1)Nc1cccnc1 (centres unmarked) [BSS-PC043, 2-cyano-1-(5-(1-(2-thienylformyl)pyrrolidine-3-yl)pentyl)-3-(3-pyridinyl)guanidine]
pIC50 [1]: 7.29
pIC50 [2]: 7.44
pIC50 [3]: 7.35
pIC50 [4]: 7.16
pIC50 [5]: 7.04
pIC50 [6]: 7.54
pIC50 [7]: 7.08

COc1cccc(OC)c1C(=O)N1CCC(CCCCCNC(=NC#N)Nc2ccncc2)C1 (centres unmarked) [BSS-PC031, 2-cyano-1-(5-(1-(2,6-dimethoxybenzoyl)pyrrolidine-3-yl)pentyl)-3-(4-pyridinyl)guanidine]
pIC50 [1]: 7.31
pIC50 [2]: 7.57
pIC50 [3]: 7.38
pIC50 [4]: 7.43
pIC50 [5]: 7.03
pIC50 [6]: 7.64
pIC50 [7]: 6.96

N#CN=C(NCCCCCN1CCN(C(=O)c2ccccc2)CC1)Nc1ccncc1 [BSS-PC003]
pIC50 [1]: 7.39
pIC50 [2]: 7.59
pIC50 [3]: 7.54
pIC50 [4]: 7.30
pIC50 [5]: 7.34
pIC50 [6]: 7.72
pIC50 [7]: 7.31

N#CN=C(NCCCCCN1CCN(C(=O)C2Cc3ccccc3O2)CC1)Nc1ccncc1 (centres unmarked) [BSS-PC021, 2-cyano-1-(5-(1-(2-benzotetrahydrofurylfuryl)piperazine-4-yl)pentyl)-3-(4-pyridinyl)guanidine]
pIC50 [1]: 6.97
pIC50 [2]: 7.26
pIC50 [3]: 7.10
pIC50 [4]: 7.19
pIC50 [5]: 6.93
pIC50 [6]: 7.31
pIC50 [7]: 7.03

N#CN=C(NCCCCCC1CCN(C(=O)c2cc3ccccc3o2)C1)Nc1ccncc1 (centres unmarked) [BSS-PC047, 2-cyano-1-(5-(1-(2-benzofurylformyl)pyrrolidine-3-yl)pentyl)-3-(4-pyridinyl)guanidine]
pIC50 [1]: 7.20
pIC50 [2]: 7.30
pIC50 [3]: 7.18
pIC50 [4]: 7.26
pIC50 [5]: 7.17
pIC50 [6]: 7.38
pIC50 [7]: 7.10

N#CN=C(NCCCCCCC1CCN(C(=O)c2cccs2)C1)Nc1cccnc1 (centres unmarked) [BSS-PC060, 2-cyano-1-(6-(1-(2-thienylformyl)pyrrolidine-3-yl)hexyl)-3-(3-pyridinyl)guanidine]
pIC50 [1]: 7.01
pIC50 [2]: 7.51
pIC50 [3]: 7.51
pIC50 [4]: 7.11
pIC50 [5]: 7.07
pIC50 [6]: 7.42
pIC50 [7]: 7.00

N#CN=C(NCCCCCCC1CCN(C(=O)c2ccco2)C1)Nc1cc(Cl)nc(Cl)c1 (centres unmarked) [BSS-PC080]
pIC50 [1]: 7.12
pIC50 [2]: 7.29
pIC50 [3]: 7.18
pIC50 [4]: 7.19
pIC50 [5]: 7.21
pIC50 [6]: 7.38
pIC50 [7]: 7.08

N#CN=C(NCCCCCN1CCN(C(=O)c2ccc[nH]2)CC1)Nc1ccncc1 [BSS-PC008, 2-cyano-1-(5-(1-(2-pyrrolylformyl)piperazine-4-yl)pentyl)-3-(4-pyridinyl)guanidine]
pIC50 [1]: 7.05
pIC50 [2]: 7.29
pIC50 [3]: 7.26
pIC50 [4]: 7.23
pIC50 [5]: 6.97
pIC50 [6]: 7.42
pIC50 [7]: 7.00

N#CN=C(NCCCCCC1CCN(C(=O)C2Cc3ccccc3O2)C1)Nc1ccncc1 (centres unmarked) [BSS-PC046, 2-cyano-1-(5-(1-(2-benzotetrahydrofurylfuryl)pyrrolidine-3-yl)pentyl)-3-(4-pyridinyl)guanidine]
pIC50 [1]: 7.13
pIC50 [2]: 7.38
pIC50 [3]: 7.15
pIC50 [4]: 7.21
pIC50 [5]: 7.08
pIC50 [6]: 7.35
pIC50 [7]: 7.07

N#CN=C(NCCCCCC1CCN(C(=O)c2ccccc2)C1)Nc1ccncc1 (centres unmarked) [BSS-PC028, 2-cyano-1-(5-((1-benzoyl)pyrrolidine-3-yl)pentyl)-3-(4-pyridinyl)guanidine]
pIC50 [1]: 7.18
pIC50 [2]: 7.46
pIC50 [3]: 7.30
pIC50 [4]: 7.41
pIC50 [5]: 7.26
pIC50 [6]: 7.51
pIC50 [7]: 7.29

N#CN=C(NCCCCCCC1CCN(C(=O)c2ccccc2)C1)Nc1cccnc1 (centres unmarked) [BSS-PC059, 2-cyano-1-(6-((1-benzoyl)pyrrolidine-3-yl)hexyl)-3-(3-pyridinyl)guanidine]
pIC50 [1]: 7.07
pIC50 [2]: 7.34
pIC50 [3]: 7.37
pIC50 [4]: 7.33
pIC50 [5]: 7.00
pIC50 [6]: 7.46
pIC50 [7]: 7.04

N#CN=C(NCCCCCN1CCN(C(=O)c2[nH]ccc2F)CC1)Nc1ccncc1 [BSS-PC024, 2-cyano-1-(5-(1-(3-fluoro-2-pyrrolylformyl)piperazine-4-yl)pentyl)-3-(4-pyridinyl)guanidine]
pIC50 [1]: 7.30
pIC50 [2]: 7.43
pIC50 [3]: 7.28
pIC50 [4]: 7.39
pIC50 [5]: 7.31
pIC50 [6]: 7.68
pIC50 [7]: 7.29

N#CN=C(NCCCCCCC1CCN(C(=O)c2cc3ccccc3[nH]2)C1)Nc1ccncc1 (centres unmarked) [BSS-PC071, 2-cyano-1-(6-(1-(2-indolylformyl)pyrrolidine-3-yl)hexyl)-3-(4-pyridinyl)guanidine]
pIC50 [1]: 7.14
pIC50 [2]: 7.21
pIC50 [3]: 7.12
pIC50 [4]: 7.19
pIC50 [5]: 6.97
pIC50 [6]: 7.31
pIC50 [7]: 6.82

N#CN=C(NCCCCCN1CCN(C(=O)c2sccc2F)CC1)Nc1ccncc1 [BSS-PC025, 2-cyano-1-(5-(1-(3-fluoro-2-thienylformyl)piperazine-4-yl)pentyl)-3-(4-pyridinyl)guanidine]
pIC50 [1]: 7.04
pIC50 [2]: 7.24
pIC50 [3]: 7.24
pIC50 [4]: 7.19
pIC50 [5]: 7.28
pIC50 [6]: 7.37
pIC50 [7]: 7.09

N#CN=C(NCCCCCCC1CCN(C(=O)C2CCCS2)C1)Nc1ccncc1 (centres unmarked) [BSS-PC058, 2-cyano-1-(6-(1-(2-tetrahydrothienylformyl)pyrrolidine-3-yl)hexyl)-3-(4-pyridinyl)guanidine]
pIC50 [1]: 7.09
pIC50 [2]: 7.28
pIC50 [3]: 7.38
pIC50 [4]: 7.16
pIC50 [5]: 7.15
pIC50 [6]: 7.37
pIC50 [7]: 7.12

N#CN=C(NCCCCCCC1CCN(C(=O)c2ccco2)C1)Nc1ccncc1 (centres unmarked) [BSS-PC057, 2-cyano-1-(6-(1-(furoyl)pyrrolidine-3-yl)hexyl)-3-(4-pyridinyl)guanidine]
pIC50 [1]: 7.16
pIC50 [2]: 7.43
pIC50 [3]: 7.28
pIC50 [4]: 7.51
pIC50 [5]: 7.22
pIC50 [6]: 7.29
pIC50 [7]: 7.19

N#CN=C(NCCCCCN1CCN(C(=O)c2cc3ccccc3o2)CC1)Nc1ccncc1 [BSS-PC022, 2-cyano-1-(5-(1-(2-benzofurylformyl)piperazine-4-yl)pentyl)-3-(4-pyridinyl)guanidine]
pIC50 [1]: 7.09
pIC50 [2]: 7.23
pIC50 [3]: 7.15
pIC50 [4]: 7.19
pIC50 [5]: 7.08
pIC50 [6]: 7.28
pIC50 [7]: 7.06

COc1cccc(OC)c1C(=O)N1CCN(CCCCCNC(=NC#N)Nc2cccnc2)CC1 [BSS-PC027, 2-cyano-1-(5-(1-(2,6-dimethoxybenzoyl)piperazine-4-yl)pentyl)-3-(3-pyridinyl)guanidine]
pIC50 [1]: 7.09
pIC50 [2]: 7.31
pIC50 [3]: 7.20
pIC50 [4]: 7.33
pIC50 [5]: 7.04
pIC50 [6]: 7.40
pIC50 [7]: 7.16
